Measured values as given in US8012956B2, “Tropane compounds” (Exelixis, Inc., priority 2007, dated 2011).

Each molecule was assayed against HSP90 (Homo sapiens, UniProt P07900) (assay: HSP90 inhibition (HSP90 IC50)).
Assay type: biochemical

SMILES	IC50
COc1cccc(C(=O)N[C@H]2C[C@H]3CC[C@@H](C2)N3c2ccc(C(=O)NCc3c(F)cc(F)cc3F)cn2)c1C [6-[3-endo-({[2-methyl-3-(methyloxy)phenyl]carbonyl}amino)-8-azabicyclo[3.2.1]oct-8-yl]-N-[(2,4,6-trifluorophenyl)methyl]pyridine-3-carboxamide]	< 500 nM
COc1cccc(C(=O)N[C@H]2C[C@H]3CC[C@@H](C2)N3c2ccc(C(=O)NCc3ccccc3C)cn2)c1C [6-[3-endo-({[2-methyl-3-(methyloxy)phenyl]carbonyl}amino)-8-azabicyclo[3.2.1]oct-8-yl]-N-[(2-methylphenyl)methyl]pyridine-3-carboxamide]	< 500 nM
COc1cccc(C(=O)N[C@H]2C[C@H]3CC[C@@H](C2)N3c2ccc(C(=O)NCc3cccc(C)c3)cn2)c1C [6-[3-endo-({[2-methyl-3-(methyloxy)phenyl]carbonyl}amino)-8-azabicyclo[3.2.1]oct-8-yl]-N-[(3-methylphenyl)methyl]pyridine-3-carboxamide]	2000 to 10000 nM
COc1cccc(C(=O)NC2CC3CCC(C2)N3c2ccc(C(=O)N[C@@H]3CCN(Cc4ccccc4)C3)cn2)c1C (stereo partly drawn) [6-[3-endo-({[2-methyl-3-(methyloxy)phenyl]carbonyl}amino)-8-azabicyclo[3.2.1]oct-8-yl]-N-[(3R)-1-(phenylmethyl)pyrrolidin-3-yl]pyridine-3-carboxamide]	< 500 nM
COc1cccc(C(=O)NC2CC3CCC(C2)N3c2ccc(C(=O)N[C@@H]3CCN(C)C3)cn2)c1C (stereo partly drawn) [6-[3-endo-({[2-methyl-3-(methyloxy)phenyl]carbonyl}amino)-8-azabicyclo[3.2.1]oct-8-yl]-N-[(3R)-1-methylpyrrolidin-3-yl]pyridine-3-carboxamide]	< 500 nM
COc1cccc(C(=O)NC2CC3CCC(C2)N3c2ccc(C(=O)N[C@@H]3CCNC3)cn2)c1C (stereo partly drawn) [6-[3-endo-({[2-methyl-3-(methyloxy)phenyl]carbonyl}amino)-8-azabicyclo[3.2.1]oct-8-yl]-N-[(3R)-pyrrolidin-3-yl]pyridine-3-carboxamide]	500 to 999 nM
COc1cccc(C(=O)NC2CC3CCC(C2)N3c2ccc(C(=O)N[C@H]3CCN(Cc4ccccc4)C3)cn2)c1C (stereo partly drawn) [6-[3-endo-({[2-methyl-3-(methyloxy)phenyl]carbonyl}amino)-8-azabicyclo[3.2.1]oct-8-yl]-N-[(3S)-1-(phenylmethyl)pyrrolidin-3-yl]pyridine-3-carboxamide]	500 to 999 nM
COc1cccc(C(=O)NC2CC3CCC(C2)N3c2ccc(C(=O)N[C@H]3CCN(C)C3)cn2)c1C (stereo partly drawn) [6-[3-endo-({[2-methyl-3-(methyloxy)phenyl]carbonyl}amino)-8-azabicyclo[3.2.1]oct-8-yl]-N-[(3S)-1-methylpyrrolidin-3-yl]pyridine-3-carboxamide]	1000 to 2000 nM
COc1cccc(C(=O)N[C@H]2C[C@H]3CC[C@@H](C2)N3c2ccc(C(=O)NCc3ccc(N4CCOCC4)cc3)cn2)c1C [6-[3-endo-({[2-methyl-3-(methyloxy)phenyl]carbonyl}amino)-8-azabicyclo[3.2.1]oct-8-yl]-N-[(4-morpholin-4-ylphenyl)methyl]pyridine-3-carboxamide]	< 500 nM
COc1cccc(C(=O)N[C@H]2C[C@H]3CC[C@@H](C2)N3c2ccc(C(=O)NCc3ccc(N4CCNCC4)cc3)cn2)c1C [6-[3-endo-({[2-methyl-3-(methyloxy)phenyl]carbonyl}amino)-8-azabicyclo[3.2.1]oct-8-yl]-N-[(4-piperazin-1-ylphenyl)methyl]pyridine-3-carboxamide]	< 500 nM
COc1cccc(C(=O)N[C@H]2C[C@H]3CC[C@@H](C2)N3c2ccc(C(=O)NCc3ccc(N4CCCC4)cc3)cn2)c1C [6-[3-endo-({[2-methyl-3-(methyloxy)phenyl]carbonyl}amino)-8-azabicyclo[3.2.1]oct-8-yl]-N-[(4-pyrrolidin-1-ylphenyl)methyl]pyridine-3-carboxamide]	500 to 999 nM
COc1cccc(C(=O)N[C@H]2C[C@H]3CC[C@@H](C2)N3c2ccc(C(=O)NCc3cnc(C)cn3)cn2)c1C [6-[3-endo-({[2-methyl-3-(methyloxy)phenyl]carbonyl}amino)-8-azabicyclo[3.2.1]oct-8-yl]-N-[(5-methylpyrazin-2-yl)methyl]pyridine-3-carboxamide]	< 500 nM
COc1cccc(C(=O)NC2CC3CCC(C2)N3c2ccc(C(=O)NC3CCCNC3)cn2)c1C (stereo not drawn) [6-[3-endo-({[2-methyl-3-(methyloxy)phenyl]carbonyl}amino)-8-azabicyclo[3.2.1]oct-8-yl]-N-piperidin-3-ylpyridine-3-carboxamide]	500 to 999 nM
COc1cccc(C(=O)N[C@H]2C[C@H]3CC[C@@H](C2)N3c2ccc(C(=O)NC3CCNCC3)cn2)c1C [6-[3-endo-({[2-methyl-3-(methyloxy)phenyl]carbonyl}amino)-8-azabicyclo[3.2.1]oct-8-yl]-N-piperidin-4-ylpyridine-3-carboxamide]	< 500 nM

Further lines, results first:

IC50	SMILES
1000 to 2000 nM	CCCNC(=O)c1ccc(N2[C@@H]3CC[C@H]2C[C@@H](NC(=O)c2cccc(OC)c2C)C3)nc1 [6-[3-endo-({[2-methyl-3-(methyloxy)phenyl]carbonyl}amino)-8-azabicyclo[3.2.1]oct-8-yl]-N-propylpyridine-3-carboxamide]
2000 to 10000 nM	COc1ccc([C@@H](C)NC(=O)c2ccc(N3C4CCC3CC(NC(=O)c3cccc(OC)c3C)C4)nc2)cc1 (stereo partly drawn) [6-[3-endo-({[2-methyl-3-(methyloxy)phenyl]carbonyl}amino)-8-azabicyclo[3.2.1]oct-8-yl]-N-{(1R)-1-[4-(methyloxy)phenyl]ethyl}pyridine-3-carboxamide]
< 500 nM	COc1cccc([C@H](C)NC(=O)c2ccc(N3C4CCC3CC(NC(=O)c3cccc(OC)c3C)C4)nc2)c1 (stereo partly drawn) [6-[3-endo-({[2-methyl-3-(methyloxy)phenyl]carbonyl}amino)-8-azabicyclo[3.2.1]oct-8-yl]-N-{(1S)-1-[3-(methyloxy)phenyl]ethyl}pyridine-3-carboxamide]
< 500 nM	COc1cccc(C(=O)NC2CC3CCC(C2)N3c2ccc(C(=O)N[C@@H](C)c3ccc(N4CCN(C)CC4)cc3)cn2)c1C (stereo partly drawn) [6-[3-endo-({[2-methyl-3-(methyloxy)phenyl]carbonyl}amino)-8-azabicyclo[3.2.1]oct-8-yl]-N-{(1S)-1-[4-(4-methylpiperazin-1-yl)phenyl]ethyl}pyridine-3-carboxamide]
2000 to 10000 nM	COc1cccc(C(=O)NC2CC3CCC(C2)N3c2ccc(C(=O)N[C@H]3CCC[C@@H]3OCc3ccccc3)cn2)c1C (stereo partly drawn) [6-[3-endo-({[2-methyl-3-(methyloxy)phenyl]carbonyl}amino)-8-azabicyclo[3.2.1]oct-8-yl]-N-{(1S,2S)-2-[(phenylmethyl)oxy]cyclopentyl}pyridine-3-carboxamide]
1000 to 2000 nM	COc1cccc(C(=O)N[C@H]2C[C@H]3CC[C@@H](C2)N3c2ccc(C(=O)NCc3ccccc3N3CCN(C)CC3)cn2)c1C [6-[3-endo-({[2-methyl-3-(methyloxy)phenyl]carbonyl}amino)-8-azabicyclo[3.2.1]oct-8-yl]-N-{[2-(4-methylpiperazin-1-yl)phenyl]methyl}pyridine-3-carboxamide]
1000 to 2000 nM	COc1ccccc1CNC(=O)c1ccc(N2[C@@H]3CC[C@H]2C[C@@H](NC(=O)c2cccc(OC)c2C)C3)nc1 [6-[3-endo-({[2-methyl-3-(methyloxy)phenyl]carbonyl}amino)-8-azabicyclo[3.2.1]oct-8-yl]-N-{[2-(methyloxy)phenyl]methyl}pyridine-3-carboxamide]
